Data reported in patent US20050074879A1, “Antisense oligonucleotide modulation of STAT3 expression” (priority 2000, published 2005).

Tests used:
Format in all cases: cell-based
Human STAT3 mRNA [1] = test: Human STAT3 mRNA dose response in A549 cells, real-time PCR with PPS 199 (Table 20); settings: 16 hours, LIPOFECTIN, − decrease, + increase relative to untreated control cells
Experimental: An additional dose-response experiment was preformed in A549 cells. A549 cells were treated with 18.75, 37.5, 75, or 150 nM of oligonucleotide mixed with 3 ug/mL LIPOFECTIN per 100 nM oligonucleotide as described by other examples herein. Control oligonucleotides used were ISIS 129686 (SEQ ID NO: 394) and ISIS 129690 (SEQ ID NO: 393). Untreated cells served as controls. Following 16 hours of treatment, RNA was prepared from cells for subsequent real-time PCR analysis.
Human STAT3 mRNA expression levels were quantitated by real-time PCR using primer probe set PPS 199 and gene target quantities were normalized using Ribogreen as described in other examples herein. A “−” or “+” designation in the dose response results indicates a decrease or increase of STAT 3 mRNA expression, respectively, relative to untreated control cells.

Human STAT3 mRNA [2] = test: Human STAT3 mRNA dose response in T-24 cells, real-time PCR with PPS 199 (Table 18); settings: 16 hours, − decrease, + increase relative to untreated control
Source text: The transitional cell bladder carcinoma cell line T-24 was obtained from the American Type Culture Collection (ATCC) (Manassas, Va.). T-24 cells were routinely cultured in complete McCoy's 5A basal media (Gibco/Life Technologies, Gaithersburg, Md.) supplemented with 10% fetal calf serum (Gibco/Life Technologies, Gaithersburg, Md.), penicillin 100 units per mL, and streptomycin 100 micrograms per mL (Gibco/Life Technologies, Gaithersburg, Md.). Cells were routinely passaged by trypsinization and dilution when they reached 90% confluence. Cells were seeded into 96-well plates (Falcon-Primaria #3872) at a density of 7000 cells/well for use in RT-PCR analysis.
Control oligonucleotides used were ISIS 129695 ([…], SEQ ID NO: 391), ISIS 129694 ([…] SEQ ID NO: 392), ISIS 129690 ([…] SEQ ID NO: 393), ISIS 129686 ([…] SEQ ID NO: 394), ISIS 116847 ([…], SEQ ID NO: 395) and ISIS 113529 ([…] SEQ ID NO: 396). These are universal scrambled control oligonucleotides.
(§1) T-24 cells were treated with 18.75, 37.5, 75, or 150 nM of oligonucleotide mixed with 3 ug/mL LIPOFECTIN per 100 nM oligonucleotide as described by other examples herein. Untreated cells served as controls. Following 16 hours of treatment, RNA was prepared from cells for subsequent real-time PCR analysis.
Human STAT3 mRNA expression levels were quantitated by real-time PCR using primer probe set PPS 199 and gene target quantities were normalized using Ribogreen as described in other examples herein. A “−” or “+” designation indicates a decrease or increase of STAT 3 mRNA expression, respectively, relative to untreated control cells.

Human STAT3 mRNA [3] = test: Human STAT3 mRNA dose response in T-24 cells, real-time PCR with PPS 2033 (Table 19); settings: 16 hours, − decrease, + increase relative to untreated control
Experimental: The dose-response was repeated in T-24 cells and gene target quantities were measured using a different primer-probe set, called PPS 2033 herein. PPS 2033 comprises probes and primers to human STAT3 were designed to hybridize to a human STAT3 sequence, using published sequence information (incorporated herein as SEQ ID NO: XXX). For PPS 2033 the PCR primers were: forward primer: GAGGCCCGCCCAACA (SEQ ID NO: 397) reverse primer: […] (SEQ ID NO: 398) and the PCR probe was: FAM-CTGCCTAGATCGGC-TAMRA (SEQ ID NO: 399) where FAM is the fluorescent reporter dye and TAMRA is the quencher dye. Gene target quantities obtained by real time RT-PCR are normalized by quantifying total RNA using RiboGreen™ (Molecular Probes, Inc. Eugene, Oreg.). Control oligonucleotides used were ISIS 129695 (SEQ ID NO: 391), ISIS 129694 (SEQ ID NO: 392), ISIS 129690 (SEQ ID NO: 393), ISIS 129686 (SEQ ID NO: 394), ISIS 116847 (SEQ ID NO: 395) and ISIS 113529 (SEQ ID NO: 396).
as §1
Human STAT3 mRNA expression levels were quantitated by real-time PCR using primer probe set PPS 2033 and gene target quantities were normalized using Ribogreen as described in other examples herein. A “−” or “+” designation indicates a decrease or increase of STAT 3 mRNA expression, respectively, relative to untreated control cells.

Human STAT3 mRNA [4] = test: STAT3 mRNA in A549 cells treated with dsRNAs (duplex antisense compounds), real-time PCR PPS 199 (Table 22); settings: treated 4 hours, harvested 16 hours later, − decrease, + increase vs untreated control
Experimental: When cells reached 80% confluency, they are treated with duplexed antisense compounds of the invention. For cells grown in 96-well plates, wells are washed once with […] OPTI-MEM-1 reduced-serum medium (Gibco BRL) and then treated with 130 μL of OPTI-MEM-1 containing 12 μg/mL LIPOFECTIN (Gibco BRL) and the desired duplex antisense compound at a final concentration of 200 nM (a ratio of 6 μg/mL LIPOFECTIN per 100 nM duplex antisense compound). After 5 hours of treatment, the medium is replaced with fresh medium. Cells are harvested 16 hours after treatment, at which time RNA is isolated and target reduction measured by RT-PCR.
The compounds in Table 21 were tested for their effects on human STAT3 expression in A549 cells. ISIS 330249 targets the same site as the antisense oligonucleotid ISIS 106734 (SEQ ID NO: 45) and ISIS 330247 targets the same site as the antisense oligonucleotide ISIS 113176 (SEQ ID NO: 115); thus, ISIS 106734 and ISIS 113176 were also tested. A549 cells were treated with oligonucleotide mixed with LIPOFECTIN (Invitrogen Corporation, Carlsbad, Calif.) as described herein. The control oligonucleotide used was ISIS 129698 ([…], SEQ ID NO: 402). Cells were treated with oligonucleotide for 4 hours and harvested an additional 16 hours later. Untreated cells served as a control.
Human STAT3 mRNA expression levels were quantitated by real-time PCR using primer probe set PPS 199 and gene target quantities were normalized using Ribogreen as described in other examples herein. A “−” or “+” designation indicates a decrease or increase of STAT 3 mRNA expression, respectively, relative to untreated control cells. Where present, “N.D.” indicates not determined.

Mouse B16 melanoma cells = test: Cell number of B16 melanoma cells after antisense treatment; settings: 24 hours after transfection
Experimental: Mouse B16 melanoma cells were grown in RPMI 1640 (Life Technologies, Inc., Grand Island, N.Y.) medium supplemented with 10% fetal bovine serum, 2 mM L-glutamine, 1 mM sodium pyruvate, 1% MEM nonessential amino acids and 100 IU/ml penicillin/streptomycin.
Cells were treated with ISIS 17152, targeted to mouse STAT3, or the 3-base mismatch control, ISIS 28084 ([…]; SEQ ID NO: 151). Cells were transfected with oligonucleotide using LipofectAMINE PLUSJ reagent (GibcoBRL). Oligonucleotide was pre-complexed with LipofectAMINE PLUSJ by adding the oligonucleotide to 100 μl serum-free RPMI 1640 medium, then 6 μl LipofectAMINE PLUSJ reagent was added, the sample was mixed well and incubated for 15 minutes at room temperature. An additional 4 μl of LipofectAMINE PLUSJ reagent was diluted to 100 μl in serum-free RPMI. This diluted LipofectAMINE PLUSJ was mixed with the pre-complexed oligonucleotide/LipofectAMINE PLUSJ mixture and incubated for 15 minutes at room temperature. 800 μl of serum-free RPMI 1640 was added, and the resulting oligonucleotide-LipofectAMINE PLUSJ-medium mixture (approximately 1 ml) was added to cells in a 6-well plate. After 3 hours incubation, 1 ml of RPMI 1640 supplemened with 20% fetal bovine serum was added. Oligonucleotide concentrations were 200 nM or 300 nM.
24 hours after transfection, cells were counted to determine the effect of antisense treatment on cell death. Cells were harvested at 24 hours post transfection for western blot analysis and at 48 hours post-transfection for Annexin-V staining for apoptosis.

Substance	Percent change of STAT3 expression in A549 cells using PPS 199 (Human STAT3 mRNA [1]; 18.75 nM oligonucleotide)	Percent change of STAT3 expression in A549 cells using PPS 199 (Human STAT3 mRNA [1]; 37.5 nM oligonucleotide)	Percent change of STAT3 expression in A549 cells using PPS 199 (Human STAT3 mRNA [1]; 75 nM oligonucleotide)	Percent change of STAT3 expression in A549 cells using PPS 199 (Human STAT3 mRNA [1]; 150 nM oligonucleotide)	Percent change of STAT3 expression using PPS 199 (Human STAT3 mRNA [2]; 18.75 nM oligonucleotide)	Percent change of STAT3 expression using PPS 199 (Human STAT3 mRNA [2]; 37.5 nM oligonucleotide)	Percent change of STAT3 expression using PPS 199 (Human STAT3 mRNA [2]; 75 nM oligonucleotide)	Percent change of STAT3 expression using PPS 199 (Human STAT3 mRNA [2]; 150 nM oligonucleotide)	Percent change of STAT3 expression using PPS 2033 (Human STAT3 mRNA [3]; 18.75 nM oligonucleotide)	Percent change of STAT3 expression using PPS 2033 (Human STAT3 mRNA [3]; 37.5 nM oligonucleotide)	Percent change of STAT3 expression using PPS 2033 (Human STAT3 mRNA [3]; 75 nM oligonucleotide)	Percent change of STAT3 expression using PPS 2033 (Human STAT3 mRNA [3]; 150 nM oligonucleotide)	Percent change in STAT3 mRNA expression in A549 cells by duplex antisense compounds (Human STAT3 mRNA [4]; 50 nM oligonucleotide)	Percent change in STAT3 mRNA expression in A549 cells by duplex antisense compounds (Human STAT3 mRNA [4]; 100 nM oligonucleotide)	Percent change in STAT3 mRNA expression in A549 cells by duplex antisense compounds (Human STAT3 mRNA [4]; 200 nM oligonucleotide)	Percent change in STAT3 mRNA expression in A549 cells by duplex antisense compounds (Human STAT3 mRNA [4]; 400 nM oligonucleotide)	further results
129686 (antisense CGTTATTAACCTCCGTTGAA; all phosphorothioate, sugars by position and methylation of C not given here; 2'-MOE wings and deoxy gap) [compound 129686]	+27%	+23%	+22%	+19%	+2%	+1%	−5%	+1%	+20%	+16%	+25%	+9%	–	–	–	–	–
106734 (CATTCTTGGGATTGTTGGTC; all C 5-methyl, all phosphorothioate, sugars by position not given here; further chemistry not fully specified) [compound 106734]	−2%	−16%	−56%	−73%	–	–	–	–	–	–	–	–	−40%	−56%	−67%	−77%	Percent change in STAT3 mRNA expression in A549 cells by duplex antisense compounds (Human STAT3 mRNA [4]; 12.5 nM oligonucleotide): −5%; Percent change in STAT3 mRNA expression in A549 cells by duplex antisense compounds (Human STAT3 mRNA [4]; 25 nM oligonucleotide): −5%
129690 (antisense TTAGAATACGTCGCGTTATG; all phosphorothioate, sugars by position and methylation of C not given here; 2'-MOE wings and deoxy gap) [compound 129690]	+30%	+27%	+16%	+27%	+2%	+7%	+6%	+8%	+4%	+10%	+8%	+11%	–	–	–	–	–
129698 (antisense TTTGATCGAGGTTAGCCGTG; listed as DNA, chemistry not given here) [compound 129698]	–	–	–	–	–	–	–	–	–	–	–	–	+41%	+42%	+1%	+22%	–
AAAAAGAGGCCTGATTGCCC (listed as DNA, chemistry not given here) [ISIS 28084, reference compound]	–	–	–	–	–	–	–	–	–	–	–	–	–	–	–	–	cell number (Mouse B16 melanoma cells; 200 nM, Expt 1): 10.2 × 10^5; cell number (Mouse B16 melanoma cells; 200 nM, Expt 2): 5.0 × 10^5; cell number (Mouse B16 melanoma cells; 200 nM, Expt 3): 3.5 × 10^5; cell number (Mouse B16 melanoma cells; 300 nM, Expt 2): 9.1 × 10^5; cell number (Mouse B16 melanoma cells; 300 nM, Expt 3): 3.3 × 10^5
